Reference: patent US20090263317A1, “METHOD OF SCREENING THE ACTIVITY OF THE SMOOTHENED RECEPTOR TO IDENTIFY THERAPUTIC MODULATION AGENTS OR DIAGNOSE DISEASE” (priority 2005, published 2009)

Target: T1, Smo (Homo sapiens, UniProt Q99835)
T1 construct: expressed in transfected cells; host or cells: HEK293
Test: Membrane recruitment (translocation) of βarr2-GFP, confocal imaging
Assay type: cell-based
From the text: Localization of beta-arrestin2 green fluorescent protein (βarr2-GFP) to the plasma membrane in cells overexpressing Smo seen in FIG. 1: Confocal images of βarr2-GFP expressed alone (A) or with Myc-Smo (B) in Human embryonic kidney (HEK)293 cells. (C) Effects of Ptc, ShhN, and G protein coupled receptor kinase (GRK2) on recruitment of βarr2-GFP to the plasma membrane. βarr2-GFP was expressed with Myc-Smo (bar 1), Myc-Smo and FLAG-Ptc (bar 2), Myc-Smo and FLAG-Ptc (co-cultured with HEK293 expressing Sonic hedgehog (Shh)N-terminus, an active form of Shh (bar 3), or Myc-Smo and GRK2 (bar 4) in HEK293 cells. Data are presented as the percentage of βarr2-GFP-13 expressing cells with recruitment of βarr2-GFP and are the means±SEM of three independent experiments. *P<0.05 (compared with bar 1) and **P<0.005 (compared with bar 2) (unpaired t test).
Confocal images of βarr2-GFP expressed with FLAG-Ptc (A), FLAG-Ptc and Myc-Smo (B), and Myc-Smo (C and D) in HEK293 cells. Cells were left untreated (A to C) or treated with 8 μM cyclopamine (D) at 37° C. for 5 min. […] (F and G) Confocal images of cells stimulated with 0.3 μM SAG at 37° C. for 0 min (F) and 30 min (G). HEK293 cells were transfected with βarr2-GFP, FLAG-Ptc, Myc-Smo, and GRK2.

T1 sequence (Q99835 28-787): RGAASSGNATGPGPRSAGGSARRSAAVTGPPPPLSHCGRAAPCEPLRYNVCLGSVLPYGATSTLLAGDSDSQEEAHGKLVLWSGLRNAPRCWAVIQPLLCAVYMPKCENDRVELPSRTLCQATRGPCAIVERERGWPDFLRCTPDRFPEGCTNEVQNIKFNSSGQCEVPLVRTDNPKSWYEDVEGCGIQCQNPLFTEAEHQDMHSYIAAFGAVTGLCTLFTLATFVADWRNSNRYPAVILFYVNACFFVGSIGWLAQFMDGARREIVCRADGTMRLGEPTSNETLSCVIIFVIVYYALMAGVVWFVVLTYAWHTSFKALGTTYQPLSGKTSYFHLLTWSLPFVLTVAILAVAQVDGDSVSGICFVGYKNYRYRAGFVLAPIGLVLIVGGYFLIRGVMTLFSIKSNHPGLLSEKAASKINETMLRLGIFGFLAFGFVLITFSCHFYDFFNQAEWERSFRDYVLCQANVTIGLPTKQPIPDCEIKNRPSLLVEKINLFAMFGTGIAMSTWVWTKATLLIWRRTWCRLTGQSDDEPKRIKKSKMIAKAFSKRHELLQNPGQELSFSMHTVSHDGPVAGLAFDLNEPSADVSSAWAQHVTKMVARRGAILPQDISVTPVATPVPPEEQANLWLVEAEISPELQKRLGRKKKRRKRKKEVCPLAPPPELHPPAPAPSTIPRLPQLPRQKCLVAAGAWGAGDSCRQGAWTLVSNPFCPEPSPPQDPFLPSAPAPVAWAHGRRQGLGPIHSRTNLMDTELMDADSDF

SMILES	Recruitment of βarr2-GFP to the plasma membrane under Ptc inhibition (HEK293 cells transfected with βarr2-GFP, FLAG-Ptc, Myc-Smo and GRK2, 0.3 μM SAG at 37° C., 30 min versus 0 min)	Recruitment of βarr2-GFP to Smo (HEK293 cells expressing βarr2-GFP and Myc-Smo, 8 μM cyclopamine at 37° C. for 5 min, versus untreated)
CNC1CCC(N(Cc2cccc(-c3ccncc3)c2)C(=O)c2sc3ccccc3c2Cl)CC1 (centres unmarked) [SAG]	relieves Ptc inhibition of recruitment of βarr2-GFP to the plasma membrane	
CC1=C2C[C@H]3[C@@H](CC=C4C[C@@H](O)CC[C@@]43C)[C@@H]2CC[C@]12O[C@@H]1C[C@H](C)CN[C@H]1[C@H]2C [cyclopamine]		ablated
